According to patent publication US8507219B2, “Method of treating inflammation with statins” (MUSC Foundation for Research Development, priority 1997, dated 2013):

Key:
[1] = test system: TNF-α production in rat primary astrocytes; experiment: LPS-induced TNF-α production (ELISA) in rat primary astrocytes; format: cell-based; conditions: forskolin 10 μM; 8-Br-cAMP 100 μM; rolipram 20 μM; H-89 2 μM; myristoylated PKI 0.4 μM
Experimental: (§1) Determination of TNF-α and IL-1β in culture supernatants Cells were stimulated with LPS in serum-free media for 24 h in the presence or absence of forskolin or rolipram, and concentrations of TNF-α and IL-1β were measured in culture supernatants by using high-sensitivity enzyme-linked immunosorbent assay (R&D Systems, USA) according to the manufacturer's instructions.

[2] = test system: IL-1β production in rat primary astrocytes; experiment: LPS-induced IL-1β production (ELISA) in rat primary astrocytes; format: cell-based; conditions: forskolin 10 μM; 8-Br-cAMP 100 μM; rolipram 20 μM; H-89 2 μM; myristoylated PKI 0.4 μM
Experimental: as §1

[3] = test system: TNF-α production in rat primary microglia; experiment: LPS-induced TNF-α production (ELISA) in rat primary microglia; format: cell-based; conditions: 10 μM forskolin or 20 μM rolipram 15 min, then LPS 1.0 μg/ml, 24 h
Experimental: as §1

[4] = test system: IL-1β production in rat primary microglia; experiment: LPS-induced IL-1β production (ELISA) in rat primary microglia; format: cell-based; conditions: 10 μM forskolin or 20 μM rolipram 15 min, then LPS 1.0 μg/ml, 24 h
Experimental: as §1

[5] = test system: cultured skin fibroblasts of X-ALD; experiment: β-oxidation of lignoceric acid in cultured skin fibroblasts of X-ALD; format: cell-based, human
[6] = test system: cultured skin fibroblasts of X-ALD; experiment: VLCFA ratios (C26:0/C22:0, C24:0/C22:0) in X-ALD skin fibroblasts; format: cell-based, human
[7] = inferred from reports in mice and marmoset (Sommer et al., 1995); cited from earlier work
[8] = test system: iNOS activity in rat primary astrocytes; experiment: iNOS activity (arginine to citrulline) in homogenates of treated rat primary astrocytes; format: cell-based; conditions: Rattus norvegicus, Astrocyte, LPS 1 μg/ml, 24 h
Experimental: NOS activity was measured directly by production of L-[2,3,4,5-^3H]citrulline from L-[2,3,4,5-^3H] arginine (Feinstein et al., 1994a). […] Assays were carried out for 30 to 40 min and the production of L-[2,3,4,5-^3H] citrulline was linear. The reactions were stopped by addition of 800 μl of ice-cold 20 mM HEPES (pH 5.5) followed by addition of 2 ml of Dowex-50W equilibrated in the same buffer. The samples were then centrifuged and the concentration of L-[^3H]citrulline was determined in the supernatant by liquid scintillation counting.
Dose Dependence of Forskolin Inhibition of the LPS Stimulation of iNOS Astrocytes were incubated with different concentrations of forskolin 15 min before the addition of 1 μg/ml LPS, and after 24 h the iNOS activity was measured as nitrite concentrations in the supernatant and conversion of arginine to citrulline in the cellular homogenates (FIG. 1). The level of nitrite and iNOS activity were inhibited to a similar degree at all the concentrations of forskolin tested. […] . […] This may be due to the fact that PKA was already completely activated in extracts of cells incubated with 10 μM forskolin. The PKA activity increased with the increase in forskolin concentration. The reciprocal relationship of production of NO and iNOS activity with PKA activity supports the conclusion that PKA plays a pivotal role in the regulation of iNOS expression in astrocytes.

PKA = PKA activity (Kemptide phosphorylation) in rat primary astrocytes; format: cell-based; conditions: optimal concentration of forskolin, LPS 1.0 μg/ml, 1 h; taken as 100%
[9] = test system: control human skin fibroblasts; experiment: β-oxidation of lignoceric acid in control human skin fibroblasts; format: cell-based; conditions: 72 h; forskolin 4 μM; 1,9 dideoxy forskolin 4 μM; 8-Br-cAMP 50 μM; H-89 1 μM; myristoylated PKI 0.2 μM; Control 565.2 ± 48.3
control skin fibroblasts = experiment: VLCFA ratios in control skin fibroblasts; format: cell-based, human; conditions: two weeks forskolin
Experimental: Measurement of VLCFA in Fibroblasts Fatty acid methyl ester (FAME) was prepared as described previously by Lepage and Roy (1986) with modifications. Fibroblast cells, suspended in HBSS, were disrupted by sonication to form a homogeneous solution. An aliquot (200 μl) of this solution was transferred to a glass tube and […] heptacosanoic (27:0) acid was added as internal standard and lipids were extracted by Folch partition. Fatty acids were transesterified with acetyl chloride (200 μl) in the presence of methanol and benzene (4:1) for 2 h at 100° C. The solution was cooled down to room temperature followed by addition of 5 ml 6% potassium carbonate solution at ice-cooled temperature. Isolation and purification of FAME were carried out as detailed by Dacremont et al. (1995). […]

| Structure (SMILES) | LPS-stimulated production of TNF-α [1] | LPS-stimulated production of IL-1β [2] | Production of TNF-α [3] [ng/24 h/mg protein] | Production of IL-1β [4] [ng/24 h/mg protein] | Lignoceric acid β-oxidation ([5]; 72 h, forskolin 4 μM, 8-Br-cAMP 50 μM, rolipram 10 μM, H-89 1 μM, myristoylated PKI 0.2 μM) | increase of the oxidation of lignoceric acid ([5]; rolipram, two weeks, X-ALD fibroblasts with mutation or deletion) [%] | ratios of C26:0/C22:0 and C24:0/C22:0 / level of VLCFA ([6]; about 15 days of treatment) | crossing of the blood brain barrier [7] | inhibition at 0.1 µM ([8]; forskolin 0.1 μM (lowest dose with significant effect)) [%] | inhibition at 10 µM ([8]; forskolin 10 μM) [%] | PKA activity (PKA) [pmol/min/mg] | Lignoceric acid β-oxidation [9] [pmol/h/mg protein] | days of treatment until the ratios of C26:0/C22:0 and C24:0/C22:0 decreased to the normal level ([6]; X-ALD fibroblasts, forskolin 4 μM, lovastatin 5 μM, combination of lovastatin and NaPA) [days] | ratio of C26:0/C22:0 (control skin fibroblasts; from 0.04) | ratio of C24:0/C22:0 (control skin fibroblasts; from 1.23) |
| --- | --- | --- | --- | --- | --- | --- | --- | --- | --- | --- | --- | --- | --- | --- | --- |
| COc1ccc(C2CNC(=O)C2)cc1OC1CCCC1 (centres unmarked) [Rolipram] | inhibited the LPS-stimulated production | inhibited the LPS-stimulated production | 1.2 ± 0.09 | 2.3 ± 0.3 | stimulated lignoceric acid β-oxidation | 50 to 65 | normalized the levels of VLCFA in these cell lines | does cross the blood brain barrier | – | – | – | – | – | – | – |
| C=C[C@@]1(C)CC(=O)[C@]2(O)[C@@]3(C)[C@@H](O)CCC(C)(C)[C@@H]3[C@H](O)[C@H](OC(C)=O)[C@@]2(C)O1 [forskolin] | – | – | 0.9 ± 0.1 | 1.9 ± 0.2 | – | – | – | – | 30 | ~90 | 74.4 ± 9.4 | 885.3 ± 62.1 | 12 to 15 | 0.029 | 1.12 |
